Experiments:
[1] = system: tail flick model for nociceptive pain in mice; test: Tail flick test for nociceptive pain; format: in vivo; conditions: for Mean latency time Post-treatment: 30 minutes after administration; for Mean latency time Pre-treatment: baseline a day before
Method: In the present study the analgesic effect of the substantially pure enantiomers E1 and E2 was evaluated using the tail flick model for nociceptive pain in mice.
The experiment was performed using male ICR strain 7 weeks old mice (25-27 g) (supplied by Harlan Israel, Ltd.)
Response to pain was assessed using the tail flick method which utilizes an Ugo Basile tail flick instrument. The animal is placed and held gently on the Ugo Basile tail flick (TF) instrument surface with the tail straight back and above a photoelectric cell that served as heat source. The heat source and timer are turned on by a foot pedal press, and automatically switch off when the animal flicks its tail off the emitter. Latency is measured and analyzed as an analgesic effect.
Description of the Study: The baseline tail flick was measured a day before the experiment started. On the day of the experiment, animal body weights were first measured followed by the IP administration of the test items (vehicle, morphine, NRD 13 S E1 and E2). 30 minutes after administration of the test items, the animals were subjected to the tail-flick testing. The tail-flick experiments were followed by blood sampling of all groups. The experiment was terminated after spinal cords and brains of all groups have been collected.
Statistics and Data Evaluation: All parameters are represented as means and standard error of the mean (SEM). Data was analyzed using a two tailed, unpaired T-test to compare each treatment group to the Vehicle treated animals. A two-tailed, paired T-test was used to compare the pre-treatment and post-treatment of each treatment group. Probability values p<0.01 and p<0.05 are considered significant.

[2] = Body weight in the Chung model study; format: in vivo, rats; conditions: for Mean group body weight Day 14: before first administration; for Mean group body weight Day 7: before treatment; for Mean group body weight Baseline: study day -1, before surgery and treatment
Method: Body Weights: Body weight was measured at regular intervals on study days −1 for baseline values and seven days after the surgery (study day 7).

Lyn A = Lyn A (Homo sapiens, UniProt P07948); test: Lyn A mobility-shift kinase assay (Caliper LabChip 3000); format: biochemical; conditions: 5 concentrations, duplicate wells; listed as (S,S) enantiomer
Method: Each compound and concentration was tested in duplicate wells.
Data points are the averages of duplicate wells. Error bars represent the mean±replicate % activity.

Sequence of Lyn A (P07948 whole entry, species assumed): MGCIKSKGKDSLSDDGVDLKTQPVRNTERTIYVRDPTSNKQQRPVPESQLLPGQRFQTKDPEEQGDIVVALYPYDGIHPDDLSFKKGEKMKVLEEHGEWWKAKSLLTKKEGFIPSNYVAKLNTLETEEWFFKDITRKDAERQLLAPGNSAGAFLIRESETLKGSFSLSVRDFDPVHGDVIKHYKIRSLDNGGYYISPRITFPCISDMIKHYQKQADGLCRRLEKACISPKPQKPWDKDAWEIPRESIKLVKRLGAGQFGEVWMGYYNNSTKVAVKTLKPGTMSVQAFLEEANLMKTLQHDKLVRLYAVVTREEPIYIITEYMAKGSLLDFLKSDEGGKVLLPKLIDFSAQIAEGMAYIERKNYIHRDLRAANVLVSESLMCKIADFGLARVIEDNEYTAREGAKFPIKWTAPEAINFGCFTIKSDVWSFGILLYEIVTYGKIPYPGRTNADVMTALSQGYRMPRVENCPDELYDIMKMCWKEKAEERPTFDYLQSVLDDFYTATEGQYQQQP

modulation of LynA tyrosine kinase activity (Lyn A): activated
Structure (SMILES): CC(O)COCC(Cc1ccc(O)cc1)NC(=O)CCc1ccccc1 (single isomer, unassigned) [E1]
increase of latency time between pretreatment and post treatment ([1]; 3 mg/kg IP): not statistically significant
reducing pain when compared to the Vehicle ([1]; 3 mg/kg IP): not significantly active in reducing pain
Mean latency time Post-treatment ([1]; 3 mg/kg IP (group 3)): 9.53 ± 0.85 s
Mean latency time Pre-treatment ([1]; 3 mg/kg IP (group 3)): 7.62 ± 0.74 s
Mean latency time Post-treatment ([1]; 10 mg/kg IP (groups 4, 6)): 10.63 ± 0.64 s
Mean latency time Pre-treatment ([1]; 10 mg/kg IP (groups 4, 6)): 8.16 ± 0.39 s
Mean latency time Post-treatment ([1]; 20 mg/kg IP (group 5)): 10.65 ± 0.81 s
Mean latency time Pre-treatment ([1]; 20 mg/kg IP (group 5)): 7.58 ± 0.41 s
conclusion: pain relief activity ([1]; dose of 3 mg/kg): significant pain relief activity only in the calculated difference
conclusion: reducing pain compared to the Vehicle treated group ([1]; doses of 10 mg/kg and 20 mg/kg): active in reducing pain
pain relief activity by difference between pre- and post-treatment latency times vs. Vehicle ([1]; in particular at doses of 10 and 20 mg/kg (p<0.01)): significant pain relief activity
pain analgesic in animal models of pain ([1]; summary statement, listed as (S,S) enantiomer): effective
Mean group body weight Day 14 ([2]; 7.5 mg/kg IP (group 5)): 287.60 ± 5.14 g
Mean group body weight Day 7 ([2]; 7.5 mg/kg IP (group 5)): 258.90 ± 4.41 g
Mean group body weight Baseline ([2]; 7.5 mg/kg IP (group 5)): 245.80 ± 2.54 g
Mean group body weight Day 21 ([2]; 7.5 mg/kg IP once daily from day 14 (group 5)): 303.80 ± 6.26 g
Mean group body weight Day 14 ([2]; 15 mg/kg IP (group 4)): 289.80 ± 3.27 g
Mean group body weight Day 7 ([2]; 15 mg/kg IP (group 4)): 259.20 ± 3.29 g
Mean group body weight Baseline ([2]; 15 mg/kg IP (group 4)): 245.00 ± 2.80 g
Mean group body weight Day 21 ([2]; 15 mg/kg IP once daily from day 14 (group 4)): 298.50 ± 3.27 g
Mean group body weight Day 14 ([2]; 30 mg/kg IP (group 3)): 288.70 ± 5.51 g
Mean group body weight Day 7 ([2]; 30 mg/kg IP (group 3)): 261.20 ± 4.45 g
Mean group body weight Baseline ([2]; 30 mg/kg IP (group 3)): 245.20 ± 3.19 g
Mean group body weight Day 21 ([2]; 30 mg/kg IP once daily from day 14 (group 3)): 303.30 ± 6.01 g

Source: patent publication US9381173B2, “Isolated stereoisomeric forms of (S)2-N(3-O-(propan 2-Ol)-1-propyl-4-hydroxybenzene)-3-phenylpropylamide” (Novaremed Ltd., priority 2011, dated 2016)
